Reference: patent publication US11351145B2, “Quercetin-based composition for treating rhinosinusitis” (APHABIO THERAPEUTICS, priority 2017, dated 2022)
Marks after values point to notes of the source that are not given here.

Legend:
Type in all cases: in vivo, rabbit
[1] = test system: rhinosinusitis induced by lipopolysaccharide (LPS); assay: Goblet cell morphometric study (alcian blue staining) in rabbits with LPS-induced rhinosinusitis; conditions: for Number of alcian positive cells on 1 mm of epithelium / Number of goblet cells on 1 mm of epithelium / Ratio of alcian positive cells to total number of goblet cells, in %: rabbits, 2 mL intranasally in each nasal cavity once daily for seven days, M ± s.e.m., n = 6
Experimental: (§1) 42 male rabbits were used in this study. Animals were separated into seven groups, each containing six rabbits. The 1st group served as an untreated control, the second group was treated with a 0.9% NaCl solution, and five experimental groups were used to test the different formulations: onion peel extract, quercetin+2-(3,4-dihydroxybenzoyl)-2,4,6-trihydroxy-3(2H)-benzofuranone quercetin, quercetin-4′-glycoside and protocatechuic acid.
(§2) Rhinosinusitis was induced by introduction of 100 μL of 1% lipopoysaccharide (LPS) in each nasal cavity of the rabbits for three days (Dong-Hyun Kim et all, 2011).
(§3) The following concentrations of composition were tested:
(§4) onion peel water extract—1 mg/mL;
(§5) the mixture of quercetin—0.009 mg/mL and 2-(3,4-dihydroxybenzoyl)-2,4,6-trihydroxy-3(2H)-benzofuranone—0.001 mg/mL;
(§6) quercetin-4′-glycoside—0.25 mg/mL;
(§7) protocatechuic acid—0.25 mg/mL.
(§8) The compounds were diluted in solutions of 0.9-1% sodium chloride or in the solution containing 0.75% NaCl+0.25% NaHCO3 heated to 37° C. before administration. Except for the mixture of quercetin+2-(3,4-dihydroxybenzoyl)-2,4,6-trihydroxy-3(2H)-benzofuranone, which was suspension, all formulations were slightly opalescent-colored solutions.
(§9) 2 mL of the solutions was administered intranasally in each nasal cavity once daily for seven days. In order to get the maximal contact of nasal cavity with the tested substances, rabbits were kept in the “head down” position during administration.
(§10) The day after the last administration of the substances, animals were sacrificed by an overdose of a general anesthetics: Zoletil (Virbac, France) and Rometar (Bioveta, Czech Republic).
(§11) After macroscopic examinations, the nasal parts of rabbits' heads were fixed in 10% formaldehyde for 24 hours, then decalcified for 14 days in a hydrochloric acid/water (25:1) solution. Then, the noses of the animals were sectioned transversally at four levels: A—at the incisors; B— in a zone posterior to the incisors, C— at the second palatal ridge, and D—at the first premolar tooth. Tissues were then washed with water for 12 hours and embedded in paraffin using conventional methods. Histological sections of 3-5 μm were prepared from these tissues using microtome. In order to examine goblet cells and their glucosamine content, the tissue sections were stained with alcian blue at pH 2.5. Some tissue sections were re-stained with haematoxylin and eosin for further histological examinations.
(§12) Morphological investigation of histological preparations was performed using optical microscope CarlZeissAxioScopeA1 (Germany) at magnifications of 25×, 50×, 100×, 200× and 400×. Microphotographs of samples were taken using a digital camera AxioCamlCc 1 and AxioVisionRel.4.8 software (Germany). Morphometric measurements were taken using AxioVisionRel.4.8 software (Germany).
Goblet cells were counted within 1 mm of the respiratory zone of the epithelium.
All data were analyzed using descriptive statistics. The normality of data distribution was verified by Shapiro-Wilks test. In the case of normality, the mean and the standard error of the mean (s.e.m) were calculated and presented in tables together with n (number of values). […] The differences between groups were analyzed using parametric or non-parametric tests depending on the distribution type. The analysis of normally distributed data was done using the unifactorial dispersion analysis test (ANOVA), and further post-hoc analysis was done using Tukey's method. The data not corresponding to the normal distribution were analyzed using the non-parametric Kruskal-Wallis test, and the differences between groups were analyzed using the Mann-Whitney test. The difference was determined at a significance level of 0.05.

[2] = test system: rhinosinusitis induced by lipopolysaccharide (LPS); assay: Visual (macroscopic) examination of rabbits with LPS-induced rhinosinusitis; conditions: in words; after seven days of treatment
Experimental: as §1, §2, §8, §9
The nasal cavities of the animals were subjected to visual examinations immediately after euthanasia.

[3] = test system: rhinosinusitis induced by lipopolysaccharide (LPS); assay: Histological scoring of sino-nasal inflammation (score 0-3) in rabbits with LPS-induced rhinosinusitis; conditions: for Epithelial desquamation / Mucous gland damage: score 0-3 (0 absence of damage, 1 slightly, 2 moderately, 3 strongly damaged); for Epithelial desquamation / Mucous gland damage / Leukocyte infiltrate of mucous membrane / Mononuclear infiltrate of mucous membrane: median (1st; 3rd quartile), n = 6; for Epithelial desquamation / Mucous gland damage / Leukocyte infiltrate of mucous membrane / Mononuclear infiltrate of mucous membrane / Inflammation degree in different zones: Olfactory region / Inflammation degree in different zones: Respiratory region / Inflammation degree in different zones: Vestibule / Inflammation type: Post-inflammatory hyperplasia of goblet cells / Inflammation type: acute catarrhal rhinosinusitis / Inflammation type: acute purulent rhinosinusitis: intranasal once daily for seven days; for Leukocyte infiltrate of mucous membrane / Mononuclear infiltrate of mucous membrane: score 0-3 (0 none, 1: 1 to 5, 2: 6 to 10, 3: more than 10 cells in the zone); for Inflammation degree in different zones: Olfactory region / Inflammation degree in different zones: Respiratory region / Inflammation degree in different zones: Vestibule / Inflammation type: Post-inflammatory hyperplasia of goblet cells / Inflammation type: acute catarrhal rhinosinusitis / Inflammation type: acute purulent rhinosinusitis: scoring from 0 to 3, median (quartiles); for Overall therapeutic effect / activity against rhinosinusitis: conclusion of the histological examination, compared to non-treated or placebo-treated animals
Experimental: as §1, §2, §3, §4, §5, §6, §7, §8, §9, §10, §11, §12
The appearance, severity of acute catarrhal rhinosinusitis, acute purulent rhinosinusitis and occurrence of post-inflammatory hyperplasia of goblet cells were evaluated by examining the degree of inflammatory lesions in various zones: vestibule, respiratory region, olfactory region and paranasal sinuses.
The degree of epithelial desquamation and mucociliary gland damage was scored along a scale from 0 to 3, where:
The degree of mononuclear and leukocyte cell infiltration was evaluated by scoring from 0 to 3, where:
0—no mononuclear cells present in the zone of examination;
1—1 to 5 mononuclear cells present in the zone of examination;
2—6 to 10 mononuclear cells present in the zone of examination;
3—more than 10 mononuclear cells present in the zone of examination.
All data were analyzed using descriptive statistics. The normality of data distribution was verified by Shapiro-Wilks test. In the case of normality, the mean and the standard error of the mean (s.e.m) were calculated and presented in tables together with n (number of values). […] The differences between groups were analyzed using parametric or non-parametric tests depending on the distribution type. […]

Row | Compound | Number of alcian positive cells on 1 mm of epithelium [1] | Number of goblet cells on 1 mm of epithelium [1] | Ratio of alcian positive cells to total number of goblet cells, in % [1] [%] | Macroscopic (visual) examination findings [2] | Acute purulent rhinosinusitis (observation) ([3]; in words) | Post-inflammatory hyperplasia of the goblet cells (observation) ([3]; in words) | Epithelial desquamation [3] | Mucous gland damage [3] | Leukocyte infiltrate of mucous membrane [3] | Mononuclear infiltrate of mucous membrane [3] | Inflammation degree in different zones: Olfactory region [3] | Inflammation degree in different zones: Respiratory region [3] | Inflammation degree in different zones: Vestibule [3] | Inflammation type: Post-inflammatory hyperplasia of goblet cells [3] | Inflammation type: acute catarrhal rhinosinusitis [3] | Inflammation type: acute purulent rhinosinusitis [3] | Leucocyte cell infiltration of the mucous membranes versus control group ([3]; in words, Kruskal-Wallis and Mann-Whitney tests) | Overall therapeutic effect / activity against rhinosinusitis ([3]; in words) | Change in the number of goblet cells on 1 mm of epithelium compared to control ([1]; in words, ANOVA and Tukey's test) | Epithelial desquamation (observation) ([3]; in words)
1 | O=c1c(O)c(-c2ccc(O)c(O)c2)oc2cc(O)cc(O)c12 [Quercetin, quercetin] | 21.3 ± 6.49 | 43.0 ± 6.46 | 47.2 ± 12.33 | No external changes were observed | no sign | no sign | 0.5(0.0; 1.0) score | 0.5(0.0; 2.0) score | 2.0(2.0; 2.0) score | 1.0 (1.0; 1.0) score | 1.0 | 2.0 | 0.0 | 0.0 | 2.0 | 0.0 | – | – | – | –
2 | O=C(O)c1ccc(O)c(O)c1 [Protocatechuic acid, protocatechuic acid] | 16.3 ± 5.82 | 44.0 ± 6.76 | 35.0 ± 9.01 | No external changes were observed | – | – | 0.0(0.0; 1.0) score | 1.0(0.0; 1.0) score | 0.5(0.0; 1.0)* score | 1.0 (1.0; 1.0) score | 1.0 | 1.0 | 0.0 | 0.5 | 1.0 | 0.0 | lower than in control group | moderate activity | – | –
3 | O=c1c(O)c(-c2ccc(O[C@@H]3O[C@H](CO)[C@@H](O)[C@H](O)[C@H]3O)c(O)c2)oc2cc(O)cc(O)c12 [Quercetin-4′-glycoside, quercetin-4′-glycoside] | 21.8 ± 6.78 | 65.6 ± 6.03 | 35.8 ± 11.13 | No external changes were observed | – | – | 0.0(0.0; 0.0)* score | 0.0(0.0; 1.0) score | 1.0(1.0; 2.0) score | 1.0 (1.0; 1.0) score | 0.5 | 1.0 | 0.0 | 1.0 | 1.0 | 0.0 | – | moderate activity | Increase | not observed
